For orientation: solubility means how much of the substance goes into solution per volume. A higher solubility goes with much dissolved substance. What is called pKa is the negative logarithm of the acid dissociation constant. A low value points to a group that gives up its proton readily.

Values after ≈ are worked out from the molar mass of the structure shown. “Also recorded” adds a separate entry of the source.

The nature of data set [1]: Biopharmaceutics Classification System (BCS) class. The following applies: stable crystalline form. The text has this: The Biopharmaceutics Classification System (BCS) is a system developed by the U.S. Food and Drug Administration (FDA) to differentiate forms of active pharmaceutical ingredients (API) based on their solubility and intestinal permeability, as follows: Class I: high solubility, high permeability; Class II: low solubility, high permeability; Class III: high solubility, low permeability, and Class IV: low solubility, low permeability. Formulating compositions of a BCS II-type API to enhance solubility and thus improve bioavailability can be a challenge.
(§1) The terms “Form A” and “Form B” refer to forms of Compound A that are purified anhydrous crystalline polymorph forms.

Data set [2] is described as follows: Polymorph stability studies. It counts as physicochemical. The following applies: crystalline polymorphs.
Source text: as §1

Data set [3] in a line: Solubility in aqueous phosphate buffer and FaSSIF, pH 6.5. It counts as physicochemical.
Data set [4] can be described thus: pKa of aromatic amino group. It counts as physicochemical. The following applies: weakly basic aromatic amino group.
The nature of data set [5]: Dynamic Vapor Sorption (DVS). It counts as physicochemical. The conditions noted are these: at 95% RH.
The nature of data set [6]: Storage stability study of SDD tablets. It counts as physicochemical. The following applies: tablet form, a year at 40° C./75% relative humidity (RH). The source says:
Granules were obtained through dry granulation, milling and mixing process. A dry granulation was obtained by sieving together a mixture of microcrystalline cellulose, lactose monohydrate, croscarmellose sodium, Poloxamer 407, colloidal silicon dioxide and the SDD, then adding magnesium stearate and mixing to obtain a first admixture. The density of the first admixture was increased by dry granulation to provide a first portion of granules. A second portion of magnesium stearate was sieved with a 30-mesh sieve, then combined with the first portion of granules and mixed in a V-blender for 2 minutes to obtain a second admixture. The second portion of granules were then obtained using a roller compactor and milled. The milled granules were added to the V-blender and mixed with the extragranular excipient's microcrystalline cellulose, lactose monohydrate and croscarmellose sodium. The extragranular excipients were sieved through a 30-mesh sieve, then added to the V-blender and mixed with the granules for 2 minutes to provide a third admixture. The third admixture was compressed into different tablet strengths using die that provided conforming tablet sizes.
Active formulation tablets having the composition as described in Table 10 were tested for stability under different storage conditions.

Consider `Cc1nc2ccc(F)cc2n1-c1nc(N)c(F)c(Nc2ccc(C(F)(F)F)cc2)n1` [Form A, 5-fluoro-2-(6-fluoro-2-methyl-1H-benzimidazol-1-yl)-N-[4-(trifluoromethyl)phenyl]pyrimidine-4,6-diamine], for which the BCS class result in data set [1] is on record as “BCS II substance”. The polymorph stability entry in data set [2] is “more stable than Form B; also recorded: most stable anhydrous crystalline form”.

Regarding `Cc1nc2ccc(F)cc2n1-c1nc(N)c(F)c(Nc2ccc(C(F)(F)F)cc2)n1` [Form I, 5-fluoro-2-(6-fluoro-2-methyl-1H-benzimidazol-1-yl)-N-[4-(trifluoromethyl)phenyl]pyrimidine-4,6-diamine], the solubility is roughly 18 µg/mL (≈ 42.8 µM) in data set [3] (Fasted State Intestinal Fluid (FaSSIF) at pH 6.5) and less than 1 µg/mL in data set [3] (aqueous phosphate buffer at pH 6.5). The pKa in data set [4] was less than 3. Further, in data set [5], the water absorption entry is given as “approximately 1.3%”.

With `Cc1nc2ccc(F)cc2n1-c1nc(N)c(F)c(Nc2ccc(C(F)(F)F)cc2)n1` [Compound A, 5-fluoro-2-(6-fluoro-2-methyl-1H-benzimidazol-1-yl)-N-[4-(trifluoromethyl)phenyl]pyrimidine-4,6-diamine], the “chemical and physical stability (XRPD and mDSC)” value in data set [6] is “both chemically and physically stable in tablet form and remained in an amorphous state”.

Consider `Cc1nc2ccc(F)cc2n1-c1nc(N)c(F)c(Nc2ccc(C(F)(F)F)cc2)n1` [Form B, 5-fluoro-2-(6-fluoro-2-methyl-1H-benzimidazol-1-yl)-N-[4-(trifluoromethyl)phenyl]pyrimidine-4,6-diamine], for which the polymorph stability entry in data set [2] is “converts to Form A”.

(Values after US20220185795A1, “COMPOUND FORM HAVING ENHANCED BIOAVAILABILITY AND FORMULATIONS THEREOF” (PTC THERAPEUTICS, INC., priority 2019, published 2022).)
